Molecules are shown by their SMILES.

This experiment has as its target T1, Human 5-lipoxygenase (Homo sapiens, UniProt P09917).
T1 construct: purchased Cayman 60402; host or cells: insect cells
T1 sequence (P09917 1-674): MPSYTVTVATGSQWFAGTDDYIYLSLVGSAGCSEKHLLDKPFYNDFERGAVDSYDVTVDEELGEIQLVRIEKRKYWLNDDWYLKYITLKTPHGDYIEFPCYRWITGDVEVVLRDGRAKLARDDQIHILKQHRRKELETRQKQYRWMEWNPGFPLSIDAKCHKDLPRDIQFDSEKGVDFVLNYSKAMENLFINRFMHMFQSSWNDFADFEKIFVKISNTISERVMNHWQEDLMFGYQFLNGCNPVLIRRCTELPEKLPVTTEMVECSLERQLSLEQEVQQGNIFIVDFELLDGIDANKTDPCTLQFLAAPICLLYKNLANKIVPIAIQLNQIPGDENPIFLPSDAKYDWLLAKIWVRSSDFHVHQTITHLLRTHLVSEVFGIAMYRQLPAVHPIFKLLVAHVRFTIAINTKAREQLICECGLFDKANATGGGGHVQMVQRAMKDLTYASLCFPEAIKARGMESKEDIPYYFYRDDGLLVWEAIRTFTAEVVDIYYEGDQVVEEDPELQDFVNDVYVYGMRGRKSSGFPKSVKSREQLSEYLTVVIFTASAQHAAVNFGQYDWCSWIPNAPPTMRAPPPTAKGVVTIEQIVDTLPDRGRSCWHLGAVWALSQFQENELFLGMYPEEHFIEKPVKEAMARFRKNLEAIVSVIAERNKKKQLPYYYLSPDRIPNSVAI
The experiment can be described thus: Activity of compounds against 5-LO enzyme (LTB4 measurement and/or fluorescence method). The experiment is classed as biochemical. The note with it: for inhibition at 10 µM: 5-LO, single concentration of 10 uM in duplicate; for IC50: 6 or 11 point dose response in duplicate. In outline: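 Insect-cell human 5-LO preincubated 15 min at RT with compound (pH 7.4, 2 mM CaCl2, 0.1 mM ATP, 1% DMSO), then 3 uM arachidonic acid for 5 min at 37 °C; LTB4 quantified by EIA and/or LC/MS/MS. Alternatively, fluorescence of 5-HpETE via H2DCFDA, 100 uM ATP, 3 uM arachidonic acid, 5 min, RT; single 10 uM screen then 6- or 11-point IC50.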

With `CCc1nc2ccc(Cl)cn2c1C(=O)NCc1ccc(Nc2ccc(OC(F)(F)F)cc2)cc1` [compound 174, 6-Chloro-2-ethyl-N-(4-(4-(trifluoromethoxy)phenylamino)benzyl)imidazo[1,2-a]pyridine-3-carboxamide], the inhibition at 10 µM was over 69% and the IC50 fell in the range of 1 to 20 µM.

On to `CCc1nc2cc(Cl)ccn2c1C(=O)NCc1ccc(Nc2ccc(OC(F)(F)F)cc2)cc1` [compound 175, 7-Chloro-2-ethyl-N-(4-(4-(trifluoromethoxy)phenylamino)benzyl)imidazo[1,2-a]pyridine-3-carboxamide], for which the inhibition at 10 µM is over 69% and the IC50 lay within 1 to 20 µM. In the case of `CCc1nc2ccc(Br)cn2c1C(=O)NCc1ccc(OC(F)(F)F)cc1` [compound 176, 6-Bromo-2-ethyl-N-(4-(trifluoromethoxy)benzyl)imidazo[1,2-a]pyridine-3-carboxamide], the inhibition at 10 µM lay within 40 to 69%. The compound `CCc1nc2ccc(Br)cn2c1C(=O)NCc1ccc(Oc2ccc(F)cc2)cc1` [compound 177, 6-Bromo-2-ethyl-N-(4-(4-fluorophenoxy)benzyl)imidazo[1,2-a]pyridine-3-carboxamide] registered an inhibition at 10 µM of under 40%. For `CCc1nc2cc(Cl)c(Cl)cn2c1C(=O)NCc1ccc(OC(F)(F)F)cc1` [compound 178, 6,7-Dichloro-2-ethyl-N-(4-(trifluoromethoxy)benzyl)imidazo[1,2-a]pyridine-3-carboxamide], the inhibition at 10 µM is under 40%. Still for that read-out and setting: in the case of `CCc1nc2cc(Cl)c(Cl)cn2c1C(=O)NCc1ccc(N2CCN(Cc3ccc(F)cc3)CC2)cc1` [compound 179, 6,7-Dichloro-2-ethyl-N-(4-(4-(4-fluorobenzyl)piperazin-1-yl)benzyl)imidazo1,2-al pyridine-3-carboxamide] it was 40 to 69%; in that of `CCc1nc2cc(Cl)c(Cl)cn2c1C(=O)NCc1ccc(N2CCN(c3ccc(F)cc3)CC2)cc1` [compound 180, 6,7-Dichloro-2-ethyl-N-(4-(4-(4-fluorophenyl)piperazin-1-yl)benzyl)imidazo[1,2-a]pyridine-3-carboxamide], under 40%; in that of `CCc1nc2ccc(Cl)cn2c1C(=O)NCc1ccc2[nH]c(-c3ccc(OC(F)(F)F)cc3)nc2c1` [compound 185, 6-Chloro-2-ethyl-N-((2-(4-(trifluoromethoxy)phenyl)-1H-benzo[d]imidazol-5-yl)methyl)imidazo[1,2-a]pyridine-3-carboxamide], 40 to 69%.

As to `CCc1nc2cc(Cl)ccn2c1C(=O)NCc1ccc2[nH]c(-c3ccc(OC(F)(F)F)cc3)nc2c1` [compound 186, 7-Chloro-2-ethyl-N-((2-(4-(trifluoromethoxy)phenyl)-1H-benzo[d]imidazol-5-yl)methyl)imidazo[1,2-a]pyridine-3-carboxamide], the inhibition at 10 µM is 40 to 69%. Compound `CCc1nc2cc(Cl)ccn2c1C(=O)NCc1ccc(Oc2ccc(OC(F)(F)F)cc2)nc1` [compound 190, 7-Chloro-2-ethyl-N-((6-(4-(trifluoromethoxy)phenoxy)pyridin-3-yl)methy)imidazo[1,2-a]pyridine-3-carboxamide] showed an inhibition at 10 µM of over 69% and an IC50 of 1 to 20 µM. Turning to `CCc1nc2ccc(Cl)cn2c1C(=O)NCc1ccc(N2CCCCCC2)cc1` [compound 192, N-(4-(Azepan-1-yl)benzyl)-6-chloro-2-ethylimidazo[1,2-a]pyridine-3-carboxamide], the inhibition at 10 µM was 40 to 69%. For `CCc1nc2cc(Cl)ccn2c1C(=O)NCc1ccc(N2CCCCCC2)cc1` [compound 193, N-(4-(Azepan-1-yl)benzyl)-7-chloro-2-ethylimidazo[1,2-a]pyridine-3-carboxamide], the inhibition at 10 µM was over 69% and the IC50 is over 20 µM. In turn, `CCc1nc2cc(Cl)ccn2c1C(=O)NCc1ccc(N2CC=CCC2)cc1` [compound 194, 7-Chloro-N-(4-(5,6-dihydropyridin-1(2H)-yl)benzyl)-2-ethylimidazo[1,2-a]pyridine-3-carboxamide] had an inhibition at 10 µM of over 69% and an IC50 of over 20 µM. On to `CCc1nc2cc(Cl)ccn2c1C(=O)NCc1ccc(N2CCC(C)CC2)cc1` [compound 195, 7-Chloro-2-ethyl-N-(4-(4-methylpiperidin-1-yl)benzyl)imidazo[1,2-a]pyridine-3-carboxamide], for which the inhibition at 10 µM lay within 40 to 69%. Same read-out and setting: for `CCc1nc2cc(Cl)ccn2c1C(=O)NCc1ccc2[nH]c(CN3CCOCC3)nc2c1` [compound 196, 7-Chloro-2-ethyl-N-((2-(morpholinomethyl)-1H-benzo[d]imidazol-5-yl)methyl)imidazo[1,2-a]pyridine-3-carboxamide] the value was under 40%; for `CCc1nc2cc(Cl)ccn2c1C(=O)NCc1ccc(N2CCC(=O)CC2)cc1` [compound 200, 7-Chloro-2-ethyl-N-(4-(4-oxopiperidin-1-yl)benzyl)imidazo[1,2-a]pyridine-3-carboxamide], 40 to 69%; for `CCc1nc2cc(Cl)ccn2c1C(=O)NCc1ccc(N2CC3CC=CCC3C2)cc1` (centres unmarked) [compound 202, 7-Chloro-N-(4-(3a,4-dihydro-1H-isoindol-2(3H7H,7aH)-yl)benzyl)-2-ethylimidazo[1,2-a]pyridine-3-carboxamide], 40 to 69%.

Consider `CCc1nc2cc(Cl)ccn2c1C(=O)OCc1ccc(Oc2ccc(F)cc2)cc1` [compound 203], for which the inhibition at 10 µM was under 40%. Same read-out and setting: for `CCc1nc2ccc(F)cn2c1C(=O)NCc1ccc(OCc2ccc(OC(F)(F)F)cc2)cc1` [compound 205, 2-Ethyl-6-fluoro-N-(4-(4-(trifluoromethoxy)benzyloxy)benzyl)imidazo[1,2-a]pyridine-3-carboxamide] the value was 40 to 69%; for `CCc1nc2cc(Cl)ccn2c1C(=O)NCc1ccc(N2CC3CCCCC3C2)cc1` (centres unmarked) [compound 216, N-(4-(1H-isoindol-2(3H,3aH,4H,5H,6H,7H,7aH)-yl)benzyl)-7-chloro-2-ethylimidazo[1,2-a]pyridine-3-carboxamide], 40 to 69%.

As for `CCc1nc2cc(Cl)ccn2c1C(=O)NCc1ccc(-n2cc3c(c2)CCCC3)cc1` [compound 217, 7-Chloro-2-ethyl-N-(4-(4,5,6,7-tetrahydro-2H-isoindol-2-yl)benzyl)imidazo[1,2-a]pyridine-3-carboxamide], the inhibition at 10 µM is over 69% and the IC50 was in the range of 1 to 20 µM. The compound `CCc1nc2ccc(C)cn2c1C(=O)NCc1ccc(Oc2ccc(OC(F)(F)F)cc2)cc1` [compound 232, 2-Ethyl-6-methyl-N-(4-(4-(trifluoromethoxy)phenoxy)benzyl)imidazo[1,2-a]pyridine-3-carboxamide] returned an inhibition at 10 µM of over 69% and an IC50 of under 1 µM. In turn, `CCc1nc2ccc(F)cn2c1C(=O)NCc1ccc(N2CCOCC2)cc1` [compound 241, 2-Ethyl-6-fluoro-N-(4-morpholinobenzyl)imidazo[1,2-a]pyridine-3-carboxamide] came in with an inhibition at 10 µM of under 40%.

Compound `CCc1nc2ccc(Cl)cn2c1C(=O)NCc1ccc(N2CCCCC2C)cc1` (centres unmarked) [compound 251, 6-chloro-2-ethyl-N-(4-(2-methylpiperidin-1-yl)benzyl)imidazo[1,2-a]pyridine-3-carboxamide] yielded an inhibition at 10 µM of under 40%. Regarding `CCc1nc2cc(N3CCN(c4ccc(F)cc4)CC3)ccn2c1C(=O)NCc1ccc(N2CCOCC2)cc1` [compound 256, 2-Ethyl-7-(4-(4-fluorophenyl)piperazin-1-yl)-N-(4-morpholinobenzyl)imidazo[1,2-a]pyridine-3-carboxamide], the inhibition at 10 µM was under 40%.

The compound `CCc1nc2ccc(Cl)cn2c1C(=O)NCc1ccc2oc(-c3ccc(F)cc3)nc2c1` [compound 258, 6-Chloro-2-ethyl-N-((2-(4-fluorophenyl)benzo[d]oxazol-5-yl)methyl)imidazo[1,2-a]pyridine-3-carboxamide] gave an inhibition at 10 µM of under 40%.

`CCc1nc2cc(Cl)ccn2c1C(=O)NCc1ccc2oc(-c3ccc(F)cc3)nc2c1` [compound 259, 7-Chloro-2-ethyl-N-((2-(4-fluorophenyl)benzo[d]oxazol-5-yl)methyl)imidazo[1,2-a]pyridine-3-carboxamide] yielded an inhibition at 10 µM of under 40%. In turn, `CCc1nc2c(Br)cccn2c1C(=O)NCc1ccc(N2CCN(c3ccc(F)cc3)CC2)cc1` [compound 260, 8-Bromo-2-ethyl-N-(4-(4-(4-fluorophenyl)piperazin-1-yl)benzyl)imidazo[1,2-a]pyridine-3-carboxamide] yielded an inhibition at 10 µM of over 69% and an IC50 of over 20 µM. `CCc1nc2cc(OC)ccn2c1C(=O)NCc1ccc(N2CCOCC2)cc1` [compound 261, 2-Ethyl-7-methoxy-N-(4-morpholinobenzyl)imidazo[1,2-a]pyridine-3-carboxamide] displayed an inhibition at 10 µM of under 40%.

The compound `CCc1nc2c(OC)cccn2c1C(=O)NCc1ccc(N2CCOCC2)cc1` [compound 262, 2-Ethyl-8-methoxy-N-(4-morpholinobenzyl)imidazo[1,2-a]pyridine-3-carboxamide] gave an inhibition at 10 µM of under 40%.

What is called inhibition is the percentage by which the read-out fell short of the control. The term IC50 denotes the midpoint of a concentration-inhibition curve. A lower IC50 goes with higher potency.

The values are drawn from patent US9029389B2 (Institut Pasteur Korea, priority 2011, dated 2015).
